pEC50: −log10 of the molar value.
Target: human PDE1b enzyme (Homo sapiens (Human), UniProt Q01064)
Assay: PDE1b inhibitory assay (IMAP TR-FRET)
Details: not given

| SMILES | pEC50 |
| --- | --- |
| O=c1n(Cc2ccc(Cl)c(Cl)c2)c2sc3c(c2c2ncnn12)CCOC3 [Example 91, 6-(3,4-Dichlorobenzyl)-6,8,10,11-tetrahydro-5H-pyrano[4′,3′:4,5]thieno[3,2-e][1,2,4]triazolo[1,5-c]pyrimidin-5-one] | 6.00 to 7.00 |
| O=c1n(Cc2ccc(F)cc2)c2sc3c(c2c2ncnn12)CCOC3 [Example 92, 6-(4-Fluorobenzyl)-6,8,10,11-tetrahydro-5H-pyrano[4′,3′:4,5]thieno[3,2-e][1,2,4]triazolo[1,5-c]pyrimidin-5-one] | 5.00 to 6.00 |
| O=c1n(Cc2ccc(Cl)c(F)c2)c2sc3c(c2c2ncnn12)CCOC3 [Example 93, 6-(4-Chloro-3-fluorobenzyl)-6,8,10,11-tetrahydro-5H-pyrano[4′,3′:4,5]thieno[3,2-e][1,2,4]triazolo[1,5-c]pyrimidin-5-one] | 6.00 to 7.00 |
| O=c1n(Cc2ccc(Cl)cc2F)c2sc3c(c2c2ncnn12)CCOC3 [Example 94, 6-(4-Chloro-2-fluorobenzyl)-6,8,10,11-tetrahydro-5H-pyrano[4′,3′:4,5]thieno[3,2-e][1,2,4]triazolo[1,5-c]pyrimidin-5-one] | 6.00 to 7.00 |
| COc1ccc(Cn2c(=O)n3ncnc3c3c4c(sc32)COCC4)cc1F [Example 95, 6-(3-Fluoro-4-methoxybenzyl)-6,8,10,11-tetrahydro-5H-pyrano[4′,3′:4,5]thieno[3,2-e][1,2,4]triazolo[1,5-c]pyrimidin-5-one] | 6.00 to 7.00 |
| O=c1n(Cc2ccc(OC(F)(F)F)cc2)c2sc3c(c2c2ncnn12)CCOC3 [Example 96, 6-(4-(Trifluoromethoxy)benzyl)-6,8,10,11-tetrahydro-5H-pyrano[4′,3′:4,5]thieno[3,2-e][1,2,4]triazolo[1,5-c]pyrimidin-5-one] | 5.00 to 6.00 |
| CCOc1ccc(Cn2c(=O)n3ncnc3c3c4c(sc32)COCC4)cc1 [Example 97, 6-(4-Ethoxybenzyl)-6,8,10,11-tetrahydro-5H-pyrano[4′,3′:4,5]thieno[3,2-e][1,2,4]triazolo[1,5-c]pyrimidin-5-one] | 5.00 to 6.00 |
| O=c1n(Cc2ccc(Cl)cc2)c2sc3c(c2c2ncnn12)CCNC3 [Example 99, 6-(4-Chlorobenzyl)-8,9,10,11-tetrahydropyrido[4′,3′:4,5]thieno[3,2-e][1,2,4]triazolo[1,5-c]pyrimidin-5(6H)-one] | 5.00 to 6.00 |
| COc1ccc(Cn2c(=O)n3ncnc3c3c4c(sc32)NCCC4)cc1OC [Example 100, 6-(3,4-Dimethoxybenzyl)-8,9,10,11-tetrahydropyrido[3′,2′:4,5]thieno[3,2-e][1,2,4]triazolo[1,5-c]pyrimidin-5(6H)-one] | 5.00 to 6.00 |
| COc1ccc(Cn2c(=O)n3nccc3c3cc(CN4C[C@@H](C)O[C@@H](C)C4)sc32)cc1 [Example 104, 2-(((2S,6R)-2,6-Dimethylmorpholino)methyl)-4-(4-methoxybenzyl)pyrazolo[1,5-c]thieno[3,2-e]pyrimidin-5(4H)-one] | 6.00 to 7.00 |
| O=c1n(Cc2ccc(Cl)cc2)c2sc3c(c2c2ncnn12)CCN(CC(F)(F)F)C3 [Example 107, 6-(4-Chlorobenzyl)-9-(2,2,2-trifluoroethyl)-8,9,10,11-tetrahydropyrido[4′,3′:4,5]thieno[3,2-e][1,2,4]triazolo[1,5-c]pyrimidin-5 (6H)-one] | 6.00 to 7.00 |
| COc1ccc(Cn2c(=O)n3ncnc3c3c4c(sc32)CN(Cc2ccc3c(c2)OC(F)(F)O3)CC4)cc1 [Example 114, 9-((2,2-Difluorobenzo[d][1,3]dioxol-5-yl)methyl)-6-(4-methoxybenzyl)-8,9,10,11-tetrahydropyrido[4′,3′:4,5]thieno[3,2-e][1,2,4]triazolo[1,5-c]pyrimidin-5 (6H)-one] | 6.00 to 7.00 |

Same assay, conditions: negative log of half-maximal molar inhibitory concentration; 200 nM FAM-cAMP; reported as ranges

| SMILES | PDE1b (pEC50) |
| --- | --- |
| COc1c(F)cc(Cn2c(=O)n3ncnc3c3c4c(sc32)COCC4)cc1F [Example 98, 6-(3,5-Difluoro-4-methoxybenzyl)-6,8,10,11-tetrahydro-5H-pyrano[4′,3′:4,5]thieno[3,2-e][1,2,4]triazolo[1,5-c]pyrimidin-5-one] | <5 |
| COc1ccc(Cn2c(=O)n3nccc3c3cc(CN4C[C@@H](C)O[C@@H](C)C4)sc32)cc1 [Example 104, 2-(((2S,6R)-2,6-Dimethylmorpholino)methyl)-4-(4-methoxybenzyl)pyrazolo[1,5-c]thieno[3,2-e]pyrimidin-5(4H)-one] | >7 |
| COc1ccc(Cn2c(=O)n3ncnc3c3c4c(sc32)CN(Cc2nnc(C)s2)CC4)cc1 [Example 108, 6-(4-Methoxybenzyl)-9-((5-methyl-1,3,4-thiadiazol-2-yl)methyl)-8,9,10,11-tetrahydropyrido[4′,3′:4,5]thieno[3,2-e][1,2,4]triazolo[1,5-c]pyrimidin-5(6H)-one] | >7 |
| COc1ccc(Cn2c(=O)n3ncnc3c3c4c(sc32)CN(CC2CC2)CC4)cc1 [Example 110, 9-(Cyclopropylmethyl)-6-(4-methoxybenzyl)-8,9,10,11-tetrahydropyrido[4′,3′:4,5]thieno[3,2-e][1,2,4]triazolo[1,5-c]pyrimidin-5 (6H)-one] | >7 |
| COc1ccc(Cn2c(=O)n3ncnc3c3c4c(sc32)CN(CC2(C)COC2)CC4)cc1 [Example 111, 6-(4-Methoxybenzyl)-9-((3-methyloxetan-3-yl)methyl)-8,9,10,11-tetrahydropyrido[4′,3′:4,5]thieno[3,2-e][1,2,4]triazolo[1,5-c]pyrimidin-5 (6H)-one] | >7 |
| COc1ccc(Cn2c(=O)n3ncnc3c3c4c(sc32)CN(CCCSC)CC4)cc1 [Example 112, 6-(4-Methoxybenzyl)-9-(3-(methylthio)propyl)-8,9,10,11-tetrahydropyrido[4′,3′:4,5]thieno[3,2-e][1,2,4]triazolo[1,5-c]pyrimidin-5(6H)-one] | >7 |
| COc1ccc(Cn2c(=O)n3ncnc3c3c4c(sc32)CN(CC2CCOC2)CC4)cc1 (stereo not drawn) [Example 113, 6-(4-Methoxybenzyl)-9-((tetrahydrofuran-3-yl)methyl)-8,9,10,11-tetrahydropyrido[4′,3′:4,5]thieno[3,2-e][1,2,4]triazolo[1,5-c]pyrimidin-5(6H)-one] | >7 |
| COc1ccc(Cn2c(=O)n3ncnc3c3c4c(sc32)CN(CC(C)(C)C)CC4)cc1 [Example 115, 6-(4-Methoxybenzyl)-9-neopentyl-8,9,10,11-tetrahydropyrido[4′,3′:4,5]thieno[3,2-e][1,2,4]triazolo[1,5-c]pyrimidin-5(6H)-one] | >7 |
| COc1ccc(Cn2c(=O)n3ncnc3c3c4c(sc32)CN(Cc2ncccn2)CC4)cc1 [Example 116, 6-(4-Methoxybenzyl)-9-(pyrimidin-2-ylmethyl)-8,9,10,11-tetrahydropyrido[4′,3′:4,5]thieno[3,2-e][1,2,4]triazolo[1,5-c]pyrimidin-5 (6H)-one] | >7 |
| COc1ccc(Cn2c(=O)n3ncnc3c3c4c(sc32)CN(CC2CCCCO2)CC4)cc1 (stereo not drawn) [Example 117, 6-(4-Methoxybenzyl)-9-((tetrahydro-2H-pyran-2-yl)methyl)-8,9,10,11-tetrahydropyrido[4′,3′:4,5]thieno[3,2-e][1,2,4]triazolo[1,5-c]pyrimidin-5(6H)-one] | >7 |
| COc1ccc(Cn2c(=O)n3ncnc3c3c4c(sc32)CN(CCCS(C)(=O)=O)CC4)cc1 [Example 118, 6-(4-Methoxybenzyl)-9-(3-(methylsulfonyl)propyl)-8,9,10,11-tetrahydropyrido[4′,3′:4,5]thieno[3,2-e][1,2,4]triazolo[1,5-c]pyrimidin-5 (6H)-one] | >7 |
| COc1ccc(Cn2c(=O)n3ncnc3c3c4c(sc32)CN(Cc2ccncn2)CC4)cc1 [Example 119, 6-(4-Methoxybenzyl)-9-(pyrimidin-4-ylmethyl)-8,9,10,11-tetrahydropyrido[4′,3′:4,5]thieno[3,2-e][1,2,4]triazolo[1,5-c]pyrimidin-5(6H)-one] | >7 |

— patent publication US10092575B2, “Substituted thiophene- and furan-fused azolopyrimidine-5-(6H)-one compounds” (DART NEUROSCIENCE (CAYMAN) LTD., priority 2012, dated 2018)
